Target: T1, FXR (Homo sapiens, UniProt Q96RI1)
T1 construct: 5 μL of 20 nM FXR-LBD Complete Coregulator buffer G; purchased ThermoFisher PV4833
T1 sequence (Q96RI1 262-486 limits assumed): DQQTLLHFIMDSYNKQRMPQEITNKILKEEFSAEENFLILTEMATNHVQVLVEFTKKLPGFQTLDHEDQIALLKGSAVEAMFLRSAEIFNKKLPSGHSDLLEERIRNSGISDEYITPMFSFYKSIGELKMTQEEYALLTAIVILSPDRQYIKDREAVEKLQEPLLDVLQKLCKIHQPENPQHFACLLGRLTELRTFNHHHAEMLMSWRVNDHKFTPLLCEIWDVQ
Experiment: FXR antagonist screening by TR-FRET (LanthaScreen TR-FRET FXR co-activation assay kit)
Format: biochemical
Conditions: Table 1.1, FXR antagonistic activity; TR-FRET with CDCA; geometric means of at least two independent runs
In short: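 FXR-LBD (20 nM working solution) mixed with compound, CDCA (200 μM working solution) as agonist, Fluorescein-SRC2-2 and Tb-anti-GST antibody in Coregulator buffer G; 10 h at room temperature. Coactivator recruitment read by TR-FRET, triplicate wells.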

CCOC(=O)c1oc2ccc(S(=O)(=O)N(CCc3ccccc3)c3ccc(N4CCN(C(=O)c5ccccc5)CC4)cc3)cc2c1C [Example M8-69, ethyl 3-methyl-5-(N-(4-(4-benzoylpiperazin-1-yl)phenyl)-N-phenethylsulfamoyl)-3-methylbenzofuran-2-carboxylate]
IC50: 50 to 100 µM

CCOC(=O)c1oc2ccc(S(=O)(=O)N(CCc3ccccc3)c3ccc(N4CCN(Cc5ccccc5)CC4)cc3)cc2c1C [Example M8-70, ethyl 3-methyl-5-(N-(4-(4-benzylpiperazin-1-yl)phenyl)-N-phenethylsulfamoyl)benzofuran-2-carboxylate]
IC50: 50 to 100 µM

CCOC(=O)c1oc2ccc(S(=O)(=O)N(CCc3ccccc3)c3ccc(N4CCN(C(=O)N(C)C)CC4)cc3)cc2c1C [Example M8-71, ethyl 3-methyl-5-(N-(4-(4-(dimethylcarbamoyl)piperazin-1-yl)phenyl)-N-phenethylsulfamoyl)benzofuran-2-carboxylate]
IC50: 50 to 100 µM

CCOC(=O)c1oc2ccc(S(=O)(=O)N(CCc3ccccc3)c3ccc(N4CCN(S(C)(=O)=O)CC4)cc3)cc2c1C [Example M8-72, ethyl 3-methyl-5-(N-(4-(4-(methylsulfonyl)piperazin-1-yl)phenyl)-N-phenethylsulfamoyl)benzofuran-2-carboxylate]
IC50: 50 to 100 µM

CCOC(=O)c1oc2ccc(S(=O)(=O)N(CCc3ccccc3)c3ccc(N4CCN(C(=O)OC(C)(C)C)CC4)c(C(F)(F)F)c3)cc2c1C [Example M8-74, ethyl 3-methyl-5-(N-(4-(4-(tert-butoxycarbonyl)piperazin-1-yl)-3-(trifluoromethyl)phenyl)-N-phenethylsulfamoyl)benzofuran-2-carboxylate]
IC50: 50 to 100 µM

CCOC(=O)c1oc2ccc(S(=O)(=O)N(CCc3ccccc3)c3ccc(N4CCN(C(=O)OC(C)(C)C)CC4)nc3)cc2c1C [Example M8-75, ethyl 3-methyl-5-(N-(6-(4-(tert-butoxycarbonyl)piperazin-1-yl)pyridin-3-yl)-N-phenethylsulfamoyl)benzofuran-2-carboxylate]
IC50: 50 to 100 µM

CCOC(=O)c1oc2ccc(S(=O)(=O)N(CCc3ccccc3)c3ccc(CN4CCN(C(=O)OC(C)(C)C)CC4)cc3)cc2c1C [Example M8-76, ethyl 3-methyl-5-(N-(4-((4-(tert-butoxycarbonyl)piperazin-1-yl)methyl)phenyl)-N-phenethylsulfamoyl)benzofuran-2-carboxylate]
IC50: 50 to 100 µM

CCOC(=O)c1oc2ccc(S(=O)(=O)N(CCc3ccccc3)c3ccccc3N3CCN(C(=O)OC(C)(C)C)CC3)cc2c1C [Example M8-77, ethyl 3-methyl-5-(N-(2-(4-(tert-butoxycarbonyl)piperazin-1-yl)phenyl)-N-phenethylsulfamoyl)benzofuran-2-carboxylate]
IC50: 50 to 100 µM

CCOC(=O)c1oc2ccc(S(=O)(=O)N(CCc3ccccc3)c3cccc(N4CCN(C)CC4)c3)cc2c1C [Example M8-78, ethyl 3-methyl-5-(N-(3-(4-methylpiperazin-1-yl)phenyl)-N-phenethylsulfamoyl)benzofuran-2-carboxylate]
IC50: 50 to 100 µM

CCOC(=O)c1oc2ccc(S(=O)(=O)N(CCc3ccccc3)Cc3ccc(N4CCOCC4)cc3)cc2c1C [Example M8-79, ethyl 3-methyl-5-(N-(4-morpholinobenzyl)-N-phenethylsulfamoyl)benzofuran-2-carboxylate]
IC50: 50 to 100 µM

CCOC(=O)c1oc2ccc(S(=O)(=O)N(CCc3ccccc3)Cc3ccc(N4CCN(C)CC4)cc3)cc2c1C [Example M8-80, ethyl 3-methyl-5-(N-(4-(4-methylpiperazin-1-yl)benzyl)-N-phenethylsulfamoyl)benzofuran-2-carboxylate]
IC50: 50 to 100 µM

CCOC(=O)c1oc2ccc(S(=O)(=O)N(CCc3ccccc3)Cc3ccc(N4CCN(C(=O)OC(C)(C)C)CC4)cc3)cc2c1C [Example M8-81, ethyl 3-methyl-5-(N-(4-(4-(tert-butoxycarbonyl)piperazin-1-yl)benzyl)-N-phenethylsulfamoyl)benzofuran-2-carboxylate]
IC50: 50 to 100 µM

CCOC(=O)c1oc2ccc(S(=O)(=O)N(CCc3ccccc3)Cc3ccc(Oc4ccccc4)cc3)cc2c1C [Example M8-86, ethyl 3-methyl-5-(N-phenethyl-N-(4-phenoxybenzyl)sulfamoyl)benzofuran-2-carboxylate]
IC50: 50 to 100 µM

CCOC(=O)c1oc2ccc(S(=O)(=O)N(CCc3ccccc3)Cc3ccccc3N3CCN(C(=O)OC(C)(C)C)CC3)cc2c1C [Example M8-87, ethyl 3-methyl-5-(N-(2-(4-(tert-butoxycarbonyl)piperazin-1-yl)benzyl)-N-phenethylsulfamoyl)benzofuran-2-carboxylate]
IC50: 50 to 100 µM

CCOC(=O)c1oc2ccc(S(=O)(=O)N(CCc3ccccc3)Cc3cccc(N4CCN(C(=O)OC(C)(C)C)CC4)c3)cc2c1C [Example M8-88, ethyl 3-methyl-5-(N-(3-(4-(tert-butoxycarbonyl)piperazin-1-yl)benzyl)-N-phenethylsulfamoyl)benzofuran-2-carboxylate]
IC50: 50 to 100 µM

CCOC(=O)c1oc2ccc(S(=O)(=O)N(CCc3ccccc3)c3ccccc3N3CCNCC3)cc2c1C [Example M9-1, ethyl 3-methyl-5-(N-phenethyl-N-(2-(piperazin-1-yl)phenyl)sulfamoyl)benzofuran-2-carboxylate]
IC50: 50 to 100 µM

CCOC(=O)c1oc2ccc(S(=O)(=O)N(CCc3ccccc3)Cc3ccccc3N3CCNCC3)cc2c1C [Example M9-2, ethyl 3-methyl-5-(N-phenethyl-N-(2-(piperazin-1-yl)benzyl)sulfamoyl)benzofuran-2-carboxylate]
IC50: 50 to 100 µM

CCOC(=O)c1oc2ccc(S(=O)(=O)N(CCc3ccccc3)c3ccccc3N3CC[N+](C)(C)CC3)cc2c1C [Example M10-90, 4-(2-((2-(ethoxycarbonyl)-3-methyl-N-phenethylbenzofuran)-5-sulfonylamino)phenyl)-1,1-dimethylpiperazin-1-ium]
IC50: 50 to 100 µM

CCOC(=O)c1oc2ccc(S(=O)(=O)N(CCc3ccccc3)c3ccccc3N3CCN(C(C)=O)CC3)cc2c1C [Example M10-91, ethyl 3-methyl-5-(N-(2-(4-acetylpiperazin-1-yl)phenyl)-N-phenethylsulfamoyl)benzofuran-2-carboxylate]
IC50: 50 to 100 µM

CCOC(=O)c1oc2ccc(S(=O)(=O)N(CCc3ccccc3)c3ccccc3N3CCN(S(C)(=O)=O)CC3)cc2c1C [Example M10-93, ethyl 3-methyl-5-(N-(2-(4-(methylsulfonyl)piperazin-1-yl)phenyl)-N-phenethylsulfamoyl)benzofuran-2-carboxylate]
IC50: 50 to 100 µM

CCOC(=O)c1oc2ccc(S(=O)(=O)N(CCc3ccccc3)c3ccccc3N3CCN(C(=O)CC(C)(C)C)CC3)cc2c1C [Example M10-94]
IC50: 50 to 100 µM

CCOC(=O)c1oc2ccc(S(=O)(=O)N(CCc3ccccc3)c3ccccc3N3CCN(Cc4ccccc4)CC3)cc2c1C [Example M10-95]
IC50: 50 to 100 µM

CCOC(=O)c1oc2ccc(S(=O)(=O)N(CCc3ccccc3)c3ccccc3N3CCN(C(=O)c4ccccc4)CC3)cc2c1C [Example M10-96]
IC50: 50 to 100 µM

CCOC(=O)c1oc2ccc(S(=O)(=O)N(CCc3ccccc3)Cc3ccccc3N3CCN(C)CC3)cc2c1C [Example M10-98, ethyl 3-methyl-5-(N-(2-(4-methylpiperazin-1-yl)benzyl)-N-phenethylsulfamoyl)benzofuran-2-carboxylate]
IC50: 50 to 100 µM

CCOC(=O)c1oc2ccc(S(=O)(=O)N(CCc3ccccc3)Cc3ccccc3N3CC[N+](C)(C)CC3)cc2c1C [Example M10-99, 4-(2-((2-(ethoxycarbonyl)-3-methyl-N-benzylethylbenzofuran)-5-sulfonylamino)phenyl)-1,1-dimethylpiperazin-1-ium]
IC50: 50 to 100 µM

CCOC(=O)c1oc2ccc(S(=O)(=O)N(CCc3ccccc3)Cc3ccccc3N3CCN(C(C)=O)CC3)cc2c1C [Example M10-100, ethyl 3-methyl-5-(N-(2-(4-acetylpiperazin-1-yl)benzyl)-N-phenethylsulfamoyl)benzofuran-2-carboxylate]
IC50: 50 to 100 µM

CCOC(=O)c1oc2ccc(S(=O)(=O)N(CCc3ccccc3)Cc3ccccc3N3CCN(S(C)(=O)=O)CC3)cc2c1C [Example M10-102, ethyl 3-methyl-5-(N-(2-(4-methanesulfonylpiperazin-1-yl)benzyl)-N-phenethylsulfamoyl)benzofuran-2-carboxylate]
IC50: 50 to 100 µM

CCOC(=O)c1oc2ccc(S(=O)(=O)N(CCc3ccccc3)Cc3ccccc3N3CCN(C(=O)CC(C)(C)C)CC3)cc2c1C [Example M10-103, ethyl 3-methyl-5-(N-(2-(4-(3,3-dimethylbutyryl)piperazin-1-yl)benzyl)-N-phenethylsulfamoyl)benzofuran-2-carboxylate]
IC50: 50 to 100 µM

CCOC(=O)c1oc2ccc(S(=O)(=O)N(CCc3ccccc3)Cc3ccccc3N3CCN(Cc4ccccc4)CC3)cc2c1C [Example M10-104, ethyl 3-methyl-5-(N-(2-(4-benzylpiperazin-1-yl)benzyl)-N-phenethylsulfamoyl)benzofuran-2-carboxylate]
IC50: 50 to 100 µM

CCOC(=O)c1oc2ccc(S(=O)(=O)N(CCc3ccccc3)Cc3ccccc3N3CCN(C(=O)c4ccccc4)CC3)cc2c1C [Example M10-105, ethyl 3-methyl-5-(N-(2-(4-benzoylpiperazin-1-yl)benzyl)-N-phenethylsulfamoyl)benzofuran-2-carboxylate]
IC50: 50 to 100 µM

Source: patent US20240239775A1, “FXR REGULATOR, PREPARATION METHOD THEREFOR, PHARMACEUTICAL COMPOSITION THEREOF AND USE THEREOF” (QINGDAO RUIJI MEDICAL TECHNOLOGY CO., LTD., priority 2021, published 2024)
